The test system of series [1] is Mycobacterium tuberculosis H37Rv. The experiment in a line: Resazurin Microplate Assay (REMA), anti-tubercular activity, H37Rv strain. To be noted: 192 h, read-out: Anti-tubercular activity against Mycobacterium tuberculosis, H37Rv (minimum inhibitory concentration, MIC). Format: cell-based. On the technique in general: The colour change of resazurin is a common sign of viable cells or microbes.

Setting [2] is: H37Rv strain, ATCC: 25177, REMA, 8 days incubation at 37° C.

Each structure is given as a SMILES string. Converted amounts (≈) assume the structure as drawn. Read-outs that look alike come from different tables or passages of the source.

`Cc1ccc(/C=C2/C(=O)N/C(=N\C(=O)Nc3cccc(F)c3)N2C)o1`: the melting point lay within 188 to 190 °C.
Still for that read-out and setting: in the case of `CN1/C(=C\c2ccc(-c3ccccc3[N+](=O)[O-])o2)C(=O)N/C1=N\C(=O)Nc1ccc(Cl)cc1Cl` it was 206 to 208 °C; in that of `CN1/C(=C\c2ccc(Br)o2)C(=O)N/C1=N\C(=O)Nc1ccc(Cl)cc1Cl`, 198 to 200 °C; in that of `Cc1ccc(/C=C2/C(=O)N/C(=N\C(=O)Nc3ccc(F)cc3)N2C)o1`, 186 to 188 °C.
Still for that read-out and setting: in the case of `CN1/C(=C\c2ccc([N+](=O)[O-])cc2)C(=O)N/C1=N\C(=O)Nc1ccccc1F` it was 150 to 152 °C; in that of `Cc1ccc(/C=C2/C(=O)N/C(=N\C(=S)Nc3cccc(Cl)c3)N2C)o1`, 158 to 160 °C.
Still for that read-out and setting: the figure for `CN1/C(=C\c2ccc(Br)o2)C(=O)N/C1=N\C(=S)Nc1cccc(Cl)c1` is 140 to 142 °C.
In turn, `Cc1ccc(/C=C2/C(=O)N/C(=N\C(=S)Nc3ccc(F)cc3)N2C)o1` showed a melting point of 146 to 148 °C.
On the same count and under the same terms, in the case of `CN1/C(=C\c2ccc([N+](=O)[O-])cc2)C(=O)N/C1=N\C(=O)Nc1ccc(F)cc1` it was 156 to 158 °C.
Compound `CN1C(=Cc2ccc([N+](=O)[O-])cc2)C(=O)N/C1=N\C(=S)Nc1cccc(Cl)c1` (stereo in doubt) [Compound 4q, 1-(3-Chlorophenyl)-3-[(2E,5Z)-1-methyl-5-(4-nitrobenzylidene)-4-oxoimidazolidin-2-ylidene]thiourea] returned a melting point of 166 to 168 °C. For the same compound, the MIC in series [1] (setting [2]) stood at 8 µg/mL (≈ 19.2 µM).
Turning to `Cc1ccc(/C=C2/C(=O)N/C(=N\C(=O)Nc3ccccc3F)N2C)o1`, the melting point was 196 to 198 °C.
`CN1C(=Cc2ccc(-c3ccccc3[N+](=O)[O-])o2)C(=O)N/C1=N\C(=S)Nc1ccc(F)cc1` (stereo in doubt) [Compound 4v, 1-(4-Fluorophenyl)-3-[(2E,5Z)-1-methyl-5-{[5-(2-nitrophenyl)furan-2-yl]methylidene}-4-oxoimidazolidin-2-ylidene]thiourea] had a melting point of 158 to 160 °C. The MIC in series [1] (setting [2]) worked out at 16 µg/mL (≈ 34.4 µM).
For the compound `CN1/C(=C\c2ccc([N+](=O)[O-])cc2)C(=O)N/C1=N\C(=O)Nc1cccc(F)c1`, the melting point was 144 to 146 °C.
`CN1/C(=C\c2ccc(Br)o2)C(=O)N/C1=N\C(=O)Nc1cccc(F)c1` [Compound 4g, 1-{(2E,5Z)-5-[(5-Bromofuran-2-yl)methylidene]-1-methyl-4-oxoimidazolidin-2-ylidene}-3-(3-fluorophenyl)urea] gave a melting point of 196 to 198 °C. Further, the MIC in series [1] (H37RV) was determined as 8 µg/mL (≈ 19.6 µM).

The melting point is the temperature of the solid-liquid transition.

(Values after patent US11981643B1, “Oxoimidazolidine derivatives as anti-tubercular agents” (priority 2023, dated 2024).)
